Blank lines part the entries; values can stand above or below the molecule they belong to. Calls of active or inactive are those of the source. The calls are words filed in the database; no cut-off is given here.
Columns and labels:
MGC-803 = experiment: Antiproliferative activity against human MGC803 cells after 72 hrs by MTT assay; format: functional, cell-based; conditions: MGC-803, 72 h
HepG2 = experiment: Antiproliferative activity against human HepG2 cells after 72 hrs by MTT assay; format: functional, cell-based; conditions: HepG2, 72 h
SK-N-SH [1] = experiment: Antiproliferative activity against human SK-N-SH cells after 72 hrs by MTT assay; format: functional, cell-based
GES1 = experiment: Cytotoxicity against human GES-1 cells assessed as cell growth inhibition after 72 hrs by MTT assay; format: cell-based; conditions: GES1, 72 h
SK-N-SH [2] = experiment: Cell cycle arrest in human SK-N-SH cells assessed as G1/G0 phase accumulation after 24 hrs by FITC/propidium iodide staining based flow cytometry; format: functional
SK-N-SH [3] = experiment: Induction of apoptosis in human SK-N-SH cells assessed as live cells at 20 uM by Annexin V-FITC/propidium iodide staining based flow cytometry (reference value: 90.9%); format: functional
SK-N-SH [4] = experiment: Induction of apoptosis in human SK-N-SH cells assessed as decrease in pro-caspase-3 expression at 5 to 10 uM after 24 hrs by Western blot analysis; format: functional, cell-based
SK-N-SH [5] = experiment: Induction of apoptosis in human SK-N-SH cells assessed as cell rounding at 5 to 10 uM after 24 hrs by Hoechst 33258 staining based fluorescence microscopic analysis; format: functional
SK-N-SH [6] = experiment: Cell cycle arrest in human SK-N-SH cells assessed as G1/G0 phase accumulation at 2.5 uM after 24 hrs by FITC/propidium iodide staining based flow cytometry (reference value: 57.72%); format: functional
SK-N-SH [7] = experiment: Induction of apoptosis in human SK-N-SH cells assessed as increase in p53 expression at 5 to 10 uM after 24 hrs by Western blot analysis; format: functional, cell-based
SK-N-SH [8] = experiment: Induction of apoptosis in human SK-N-SH cells assessed as increase in caspase-3 expression at 5 to 10 uM after 24 hrs by Western blot analysis; format: functional, cell-based
SK-N-SH [9] = experiment: Induction of apoptosis in human SK-N-SH cells assessed as late apoptotic cells at 20 uM by Annexin V-FITC/propidium iodide staining based flow cytometry (reference value: 1.7%); format: functional
SK-N-SH [10] = experiment: Cell cycle arrest in human SK-N-SH cells assessed as G1/G0 phase accumulation at 10 uM after 24 hrs by FITC/propidium iodide staining based flow cytometry (reference value: 57.72%); format: functional
SK-N-SH [11] = experiment: Cell cycle arrest in human SK-N-SH cells assessed as S phase accumulation at 2.5 uM after 24 hrs by FITC/propidium iodide staining based flow cytometry (reference value: 37.4%); format: functional
SK-N-SH [12] = experiment: Induction of apoptosis in human SK-N-SH cells assessed as early apoptotic cells at 2.5 uM by Annexin V-FITC/propidium iodide staining based flow cytometry (reference value: 7.1%); format: functional
SK-N-SH [13] = experiment: Induction of apoptosis in human SK-N-SH cells assessed as early apoptotic cells at 5 uM by Annexin V-FITC/propidium iodide staining based flow cytometry (reference value: 7.1%); format: functional
SK-N-SH [14] = experiment: Induction of apoptosis in human SK-N-SH cells assessed as necrotic cells at 1.25 uM by Annexin V-FITC/propidium iodide staining based flow cytometry (reference value: 0.3%); format: functional
SK-N-SH [15] = experiment: Induction of apoptosis in human SK-N-SH cells assessed as live cells at 2.5 uM by Annexin V-FITC/propidium iodide staining based flow cytometry (reference value: 90.9%); format: functional
SK-N-SH [16] = experiment: Induction of apoptosis in human SK-N-SH cells assessed as early apoptotic cells at 1.25 uM by Annexin V-FITC/propidium iodide staining based flow cytometry (reference value: 7.1%); format: functional
SK-N-SH [17] = experiment: Induction of apoptosis in human SK-N-SH cells assessed as necrotic cells at 20 uM by Annexin V-FITC/propidium iodide staining based flow cytometry (reference value: 0.3%); format: functional
SK-N-SH [18] = experiment: Induction of apoptosis in human SK-N-SH cells assessed as late apoptotic cells at 2.5 uM by Annexin V-FITC/propidium iodide staining based flow cytometry (reference value: 1.7%); format: functional
SK-N-SH [19] = experiment: Induction of apoptosis in human SK-N-SH cells assessed as necrotic cells at 2.5 uM by Annexin V-FITC/propidium iodide staining based flow cytometry (reference value: 0.3%); format: functional
SK-N-SH [20] = experiment: Cell cycle arrest in human SK-N-SH cells assessed as G2/M phase accumulation at 2.5 uM after 24 hrs by FITC/propidium iodide staining based flow cytometry (reference value: 6.03%); format: functional
SK-N-SH [21] = experiment: Cell cycle arrest in human SK-N-SH cells assessed as S phase accumulation at 10 uM after 24 hrs by FITC/propidium iodide staining based flow cytometry (reference value: 37.4%); format: functional
SK-N-SH [22] = experiment: Induction of apoptosis in human SK-N-SH cells assessed as live cells at 1.25 uM by Annexin V-FITC/propidium iodide staining based flow cytometry (reference value: 90.9%); format: functional
SK-N-SH [23] = experiment: Induction of apoptosis in human SK-N-SH cells assessed as formation of apoptotic bodies at 5 to 10 uM after 24 hrs by Hoechst 33258 staining based fluorescence microscopic analysis; format: functional, cell-based
SK-N-SH [24] = experiment: Induction of apoptosis in human SK-N-SH cells assessed as necrotic cells at 10 uM by Annexin V-FITC/propidium iodide staining based flow cytometry (reference value: 0.3%); format: functional
SK-N-SH [25] = experiment: Induction of apoptosis in human SK-N-SH cells assessed as late apoptotic cells at 5 uM by Annexin V-FITC/propidium iodide staining based flow cytometry (reference value: 1.7%); format: functional
SK-N-SH [26] = experiment: Induction of apoptosis in human SK-N-SH cells assessed as chromatin shrinkage at 5 to 10 uM after 24 hrs by Hoechst 33258 staining based fluorescence microscopic analysis; format: functional, cell-based
SK-N-SH [27] = experiment: Induction of apoptosis in human SK-N-SH cells assessed as necrotic cells at 5 uM by Annexin V-FITC/propidium iodide staining based flow cytometry (reference value: 0.3%); format: functional
SK-N-SH [28] = experiment: Cell cycle arrest in human SK-N-SH cells assessed as G1/G0 phase accumulation at 5 uM after 24 hrs by FITC/propidium iodide staining based flow cytometry (reference value: 57.72%); format: functional
SK-N-SH [29] = experiment: Induction of apoptosis in human SK-N-SH cells assessed as late apoptotic cells at 10 uM by Annexin V-FITC/propidium iodide staining based flow cytometry (reference value: 1.7%); format: functional
SK-N-SH [30] = experiment: Cell cycle arrest in human SK-N-SH cells assessed as G2/M phase accumulation at 10 uM after 24 hrs by FITC/propidium iodide staining based flow cytometry (reference value: 6.03%); format: functional
SK-N-SH [31] = experiment: Induction of apoptosis in human SK-N-SH cells assessed as early apoptotic cells at 20 uM by Annexin V-FITC/propidium iodide staining based flow cytometry (reference value: 7.1%); format: functional
SK-N-SH [32] = experiment: Induction of apoptosis in human SK-N-SH cells assessed as late apoptotic cells at 1.25 uM by Annexin V-FITC/propidium iodide staining based flow cytometry (reference value: 1.7%); format: functional
SK-N-SH [33] = experiment: Cell cycle arrest in human SK-N-SH cells assessed as G2/M phase accumulation at 5 uM after 24 hrs by FITC/propidium iodide staining based flow cytometry (reference value: 6.03%); format: functional
SK-N-SH [34] = experiment: Induction of apoptosis in human SK-N-SH cells assessed as early apoptotic cells at 10 uM by Annexin V-FITC/propidium iodide staining based flow cytometry (reference value: 7.1%); format: functional
SK-N-SH [35] = experiment: Induction of apoptosis in human SK-N-SH cells assessed as live cells at 10 uM by Annexin V-FITC/propidium iodide staining based flow cytometry (reference value: 90.9%); format: functional
SK-N-SH [36] = experiment: Induction of apoptosis in human SK-N-SH cells assessed as live cells at 5 uM by Annexin V-FITC/propidium iodide staining based flow cytometry (reference value: 90.9%); format: functional
SK-N-SH [37] = experiment: Cell cycle arrest in human SK-N-SH cells assessed as S phase accumulation at 5 uM after 24 hrs by FITC/propidium iodide staining based flow cytometry (reference value: 37.4%); format: functional

IC50 (MGC-803): 26.1 µM
IC50 (HepG2): 11.4 µM
IC50 (SK-N-SH [1]): 7.43 µM
Structure (SMILES): O=C(/C=C/c1ccncc1)c1ccc(OCc2cn(Cc3ccccc3)nn2)cc1

IC50 (MGC-803): > 64 µM
IC50 (HepG2): > 64 µM
IC50 (SK-N-SH [1]): > 64 µM
Structure (SMILES): Nc1ccc(C(=O)/C=C/c2cccs2)cc1

IC50 (MGC-803): 11.6 µM
IC50 (HepG2): 5.47 µM
IC50 (SK-N-SH [1]): 6.44 µM
Structure (SMILES): CN1CCN(c2ccc(/C=C/C(=O)c3ccc(OCc4cn(Cc5ccccc5)nn4)cc3)cc2F)CC1

IC50 (MGC-803): > 64 µM
IC50 (HepG2): 27.9 µM
IC50 (SK-N-SH [1]): 36.4 µM
Structure (SMILES): O=C(/C=C/c1ccc(Cl)cc1Cl)c1ccc(OCc2cn(Cc3ccccc3)nn2)cc1

IC50 (MGC-803): 16.8 µM
IC50 (HepG2): 23.4 µM
IC50 (SK-N-SH [1]): 20.5 µM
Structure (SMILES): O=C(/C=C/c1cc(Cl)cc(Cl)c1)c1ccc(NCc2cn(Cc3ccccc3)nn2)cc1

IC50 (MGC-803): 29.8 µM
IC50 (HepG2): 24.4 µM
IC50 (SK-N-SH [1]): 11.6 µM
Structure (SMILES): O=C(/C=C/c1ccc([N+](=O)[O-])cc1)c1ccc(OCc2cn(Cc3ccccc3)nn2)cc1

IC50 (MGC-803): 40.2 µM
IC50 (HepG2): 38.8 µM
IC50 (SK-N-SH [1]): 42.4 µM
Structure (SMILES): O=C(/C=C/c1ccc(F)cc1)c1ccc(NCc2cn(Cc3ccccc3)nn2)cc1

IC50 (MGC-803): 3.15 µM
IC50 (HepG2): 6.92 µM
IC50 (SK-N-SH [1]): 7.29 µM
Structure (SMILES): O=C(/C=C/c1cccnc1)c1ccc(NCc2cn(Cc3ccccc3C(F)(F)F)nn2)cc1
IC50 (GES1): 54.7 µM

IC50 (MGC-803): 23.5 µM
IC50 (HepG2): > 64 µM
IC50 (SK-N-SH [1]): 27.3 µM
Structure (SMILES): O=C(/C=C/c1cc(F)cc(F)c1)c1ccc(NCc2cn(Cc3ccccc3)nn2)cc1

IC50 (MGC-803): 3.43 µM
IC50 (HepG2): 4.37 µM
IC50 (SK-N-SH [1]): 5.15 µM
Structure (SMILES): O=C(/C=C/c1cccnc1)c1ccc(NCc2cn(Cc3ccccc3)nn2)cc1

IC50 (MGC-803): 2.73 µM
IC50 (HepG2): 2.21 µM
IC50 (SK-N-SH [1]): 1.53 µM
Structure (SMILES): COc1cccc(Cn2cc(CNc3ccc(C(=O)/C=C/c4cccnc4)cc3)nn2)c1
Activity (SK-N-SH [2]): Dose-dependent effect
Activity (SK-N-SH [3]): 1%
Activity (SK-N-SH [4]): Active
Activity (SK-N-SH [5]): Active
Activity (SK-N-SH [6]): 67.06%
Activity (SK-N-SH [7]): Active
Activity (SK-N-SH [8]): Active
Activity (SK-N-SH [9]): 57.7%
Activity (SK-N-SH [10]): 81.8%
Activity (SK-N-SH [11]): 19.11%
Activity (SK-N-SH [12]): 5.8%
Activity (SK-N-SH [13]): 9.6%
Activity (SK-N-SH [14]): 0.3%
Activity (SK-N-SH [15]): 91.4%
Activity (SK-N-SH [16]): 5.7%
Activity (SK-N-SH [17]): 1.6%
Activity (SK-N-SH [18]): 2.1%
Activity (SK-N-SH [19]): 0.7%
Activity (SK-N-SH [20]): 18.71%
Activity (SK-N-SH [21]): 10.34%
Activity (SK-N-SH [22]): 92.9%
Activity (SK-N-SH [23]): Active
Activity (SK-N-SH [24]): 0.5%
Activity (SK-N-SH [25]): 2.5%
Activity (SK-N-SH [26]): Active
Activity (SK-N-SH [27]): 0.8%
Activity (SK-N-SH [28]): 71.27%
Activity (SK-N-SH [29]): 18.8%
IC50 (GES1): 31.1 µM
Activity (SK-N-SH [30]): 7.17%
Activity (SK-N-SH [31]): 39.7%
Activity (SK-N-SH [32]): 1.2%
Activity (SK-N-SH [33]): 14.2%
Activity (SK-N-SH [34]): 31.9%
Activity (SK-N-SH [35]): 48.8%
Activity (SK-N-SH [36]): 87.1%
Activity (SK-N-SH [37]): 15.65%

IC50 (MGC-803): > 64 µM
IC50 (HepG2): 24 µM
IC50 (SK-N-SH [1]): 19.6 µM
Structure (SMILES): O=C(/C=C/c1cccc(Cl)c1)c1ccc(OCc2cn(Cc3ccccc3)nn2)cc1

IC50 (MGC-803): > 64 µM
IC50 (HepG2): > 64 µM
IC50 (SK-N-SH [1]): 48.9 µM
Structure (SMILES): Nc1ccc(C(=O)/C=C/c2ccco2)cc1
